Read-outs that look alike come from different tables or passages of the source.
Legend:
corn rust = experiment: Protectant activity in vivo (whole plant) against corn rust; conditions: for pest or weed control at 6.25 µg/mL / pest or weed control at 25 µg/mL / pest or weed control at 100 µg/mL / pest or weed control at 400 µg/mL: Zea mays, 168 h
Description: (§1) The method is as followed: The whole plant is used in this test. The compound is dissolved in a proper solvent to get mother solution. The proper solvent is selected from acetone, methanol, DMF and so on according to their dissolving capability to the sample. The volume rate of solvent and testing solution (v/v) is equal to or less than 5%. The mother solution is diluted with water containing 0.1% tween-80 to get the testing solution whose concentration is designed. The testing solution is sprayed to the host plant by a special plant sprayer. The plant is inoculated with fungus after 24 hours. According to the infecting characteristic of fungus, the plant is stored in a humidity chamber and then transferred into greenhouse after infection is finished. And the other plants are placed in greenhouse directly. The activity of compound is obtained by eyeballing after 7 days in common.

cucumber downy mildew = experiment: Protectant activity in vivo (whole plant) against cucumber downy mildew
Description: as §1

cucumber gray mold = experiment: Activity in vitro (96-well, High Through Put): inhibition rate against cucumber gray mold; assay type: cell-based; conditions: in vitro, dose 0.9 mg/L
Description: The method is as followed: High Through Put is used in the test. The compound is dissolved in a proper solvent to become a testing solution whose concentration is designed. The solvent is selected from acetone, methanol, DMF and so on according to their dissolving capability to the sample. In a no animalcule condition, the testing solution and pathogens suspension are added into the cells of 96 cells culture board, which then should be placed in the constant temperature box. 24 hours later, pathogen germination or growth can be investigated by eyeballing, and the activity in vitro of the compound is evaluated based on germination or growth of control treatment.

[1] = 400 mg/L, read-out: the protectant activity (%) against corn rust
[2] = dose 400 mg/L, read-out: protectant activity against corn rust in vivo

## N#Cc1c(F)c(F)c(C#N)c(Nc2c(Cl)cc([N+](=O)[O-])cc2Br)c1F [Compound C-99]
Corn rust; dose 400 mg/L
  protectant activity against corn rust in vivo: 100%

## N#Cc1c(Cl)c(Cl)c(C#N)c(Nc2cc([N+](=O)[O-])ccc2Cl)c1Cl [Compound C-29]
Corn rust; dose 400 mg/L
  protectant activity against corn rust in vivo: 80%

## N#Cc1c(Cl)c(Cl)c(C#N)c(Nc2ccc([N+](=O)[O-])cc2F)c1Cl [Compound C-27]
Cucumber downy mildew; dose 25 mg/L
  protectant activity against cucumber downy mildew in vivo: 100%
Cucumber downy mildew; dose 50 mg/L
  protectant activity against cucumber downy mildew in vivo: 100%
Cucumber downy mildew; dose 100 mg/L
  protectant activity against cucumber downy mildew in vivo: 100%
Cucumber downy mildew; dose 400 mg/L
  protectant activity against cucumber downy mildew in vivo: 100%
Cucumber gray mold
  inhibition rate against cucumber gray mold: 80%

## N#Cc1c(Cl)c(Cl)c(C#N)c(Nc2ccc(Cl)c(C(F)(F)F)c2)c1Cl [Compound C-39]
Corn rust; dose 400 mg/L
  protectant activity against corn rust in vivo: 100%

## N#Cc1c(F)c(F)c(C#N)c(Nc2ccc(Cl)cc2[N+](=O)[O-])c1F [Compound C-89]
Corn rust; dose 400 mg/L
  protectant activity against corn rust in vivo: 80%

## N#Cc1c(Cl)c(Cl)c(Nc2c(Cl)cc([N+](=O)[O-])cc2Br)c(C#N)c1Cl [Compound B-55]
Corn rust; 6.25 mg/L
  the protectant activity (%) against corn rust: 0%
Corn rust; 25 mg/L
  the protectant activity (%) against corn rust: 25%
Corn rust; 100 mg/L
  the protectant activity (%) against corn rust: 100%
Corn rust; 400 mg/L
  the protectant activity (%) against corn rust: 100%
Corn rust; dose 100 mg/L
  protectant activity against corn rust in vivo: 100%
Corn rust; dose 400 mg/L
  protectant activity against corn rust in vivo: 100%

## N#Cc1c(F)c(F)c(C#N)c(Nc2ccc(O)cc2)c1F [KC16]
Corn rust; 6.25 mg/L
  pest or weed control at 6.25 µg/mL: 0%
Corn rust; 25 mg/L
  pest or weed control at 25 µg/mL: 0%
Corn rust; 100 mg/L
  pest or weed control at 100 µg/mL: 0%
Corn rust; [1]
  pest or weed control at 400 µg/mL: 0%
Corn rust; [2]
  pest or weed control at 400 µg/mL: 0%
Cucumber downy mildew; Cucumis sativus, 168 h, 12.5 mg/L
  pest or weed control at 12.5 µg/mL: 0%
Cucumber downy mildew; Cucumis sativus, 168 h, 25 mg/L, read-out: the protectant activity (%) against cucumber downy mildew
  pest or weed control at 25 µg/mL: 0%
Cucumber downy mildew; Cucumis sativus, 168 h, 50 mg/L, read-out: the protectant activity (%) against cucumber downy mildew
  pest or weed control at 50 µg/mL: 0%
Cucumber downy mildew; Cucumis sativus, 168 h, 100 mg/L, read-out: the protectant activity (%) against cucumber downy mildew
  pest or weed control at 100 µg/mL: 20%
Cucumber downy mildew; Cucumis sativus, 168 h, dose 50 mg/L, read-out: protectant activity against cucumber downy mildew in vivo
  pest or weed control at 50 µg/mL: 0%
Cucumber downy mildew; Cucumis sativus, 168 h, dose 100 mg/L, read-out: protectant activity against cucumber downy mildew in vivo
  pest or weed control at 100 µg/mL: 20%

## Cc1c(Cl)c([N+](=O)[O-])cc([N+](=O)[O-])c1Nc1c(Cl)c(Cl)c(C#N)c(Cl)c1C#N [Compound B-68]
Cucumber downy mildew; dose 100 mg/L
  protectant activity against cucumber downy mildew in vivo: 100%
Cucumber downy mildew; dose 400 mg/L
  protectant activity against cucumber downy mildew in vivo: 100%
Cucumber gray mold
  inhibition rate against cucumber gray mold: 80%

## N#Cc1c(Cl)c(Cl)c(Nc2ccc(Cl)cc2[N+](=O)[O-])c(Cl)c1C#N [Compound A-23]
Corn rust; dose 400 mg/L
  protectant activity against corn rust in vivo: 80%
Cucumber downy mildew; dose 400 mg/L
  protectant activity against cucumber downy mildew in vivo: 100%

## N#Cc1c(F)c(F)c(C#N)c(Nc2c(Cl)cncc2Cl)c1F [Compound C-125]
Corn rust; dose 400 mg/L
  protectant activity against corn rust in vivo: 100%

## N#Cc1c(F)c(F)c(C#N)c(Nc2c(Cl)cc([N+](=O)[O-])cc2Cl)c1F [Compound C-93]
Cucumber downy mildew; dose 400 mg/L
  protectant activity against cucumber downy mildew in vivo: 100%

## N#Cc1c(Cl)c(Cl)c(Nc2ccc(F)cc2F)c(C#N)c1Cl [Compound B-14]
Corn rust; dose 400 mg/L
  protectant activity against corn rust in vivo: 100%
Cucumber downy mildew; dose 400 mg/L
  protectant activity against cucumber downy mildew in vivo: 100%

## N#Cc1c(F)c(Cl)c(Nc2ccc(Cl)cc2)c(C#N)c1F [KC18]
Corn rust; 6.25 mg/L
  pest or weed control at 6.25 µg/mL: 0%
Corn rust; 25 mg/L
  pest or weed control at 25 µg/mL: 0%
Corn rust; 100 mg/L
  pest or weed control at 100 µg/mL: 0%
Corn rust; [1]
  pest or weed control at 400 µg/mL: 0%
Corn rust; [2]
  pest or weed control at 400 µg/mL: 0%

## N#Cc1c(Cl)c(Cl)c(Nc2ccc(OC(F)(F)F)cc2)c(C#N)c1Cl [Compound B-12]
Cucumber downy mildew; dose 400 mg/L
  protectant activity against cucumber downy mildew in vivo: 100%

## N#Cc1c(F)c(F)c(C#N)c(Nc2cc([N+](=O)[O-])ccc2Cl)c1F [Compound C-81]
Cucumber downy mildew; dose 400 mg/L
  protectant activity against cucumber downy mildew in vivo: 100%

## N#Cc1c(Cl)c(Cl)c(C#N)c(Nc2c(Cl)cc([N+](=O)[O-])cc2Cl)c1Cl [Compound C-40]
Corn rust; 6.25 mg/L
  the protectant activity (%) against corn rust: 30%
Corn rust; 25 mg/L
  the protectant activity (%) against corn rust: 80%
Corn rust; 100 mg/L
  the protectant activity (%) against corn rust: 100%
Corn rust; 400 mg/L
  the protectant activity (%) against corn rust: 100%
Corn rust; dose 100 mg/L
  protectant activity against corn rust in vivo: 100%
Cucumber downy mildew; dose 25 mg/L
  protectant activity against cucumber downy mildew in vivo: 100%
Cucumber downy mildew; dose 50 mg/L
  protectant activity against cucumber downy mildew in vivo: 100%
Cucumber downy mildew; dose 100 mg/L
  protectant activity against cucumber downy mildew in vivo: 100%
Cucumber downy mildew; dose 400 mg/L
  protectant activity against cucumber downy mildew in vivo: 100%
